Measured values reported in patent publication US11458175B2, “Composition comprising Lactobacillus plantarum CJLP475 strain and Lactobacillus plantarum CJLP243 strain and use thereof” (CJ CHEILJEDANG CORPORATION, priority 2018, dated 2022).

Tests used:
[1] = Bile-resistance assessment in artificial bile medium (viable cell count); assay type: physicochemical; conditions: artificial bile medium (MRS with 0.5% oxgall), 37° C.
Protocol: An artificial bile medium was prepared for the assessment of bile-resistance. More specifically, the artificial bile medium was prepared by adding 0.5% oxgall (bull bile) to a liquid MRS medium, followed by sterilization.
(§1) The strains of Example 1 were subjected to a static culture in a liquid MRS medium at 37° C. for 18 hours after the second subculture. 1% of the pre-incubated strains were inoculated to the artificial bile medium and subjected to a static culture at 37° C., and the culture broth was sampled at 0 hour and 24 hours. The sampled culture broth was serial diluted and smeared on the solid MRS medium, and incubated at 37° C. for 48 hours to measure viable cell count.
(§2) In order to compare the acid-resistance and bile-resistance of the Lactobacillus plantarum CJLP475 strain and the Lactobacillus plantarum CJLP243 strain with those of the conventionally known strains, the acid-resistance and the bile-resistance of the Lactobacillus plantarum standard strain (KCCM12116) obtained from the Korean Culture Center of Microorganisms were assessed in the same manner as the above method.

[2] = Antibiotic susceptibility test with antibiotic discs; conditions: for resistance to antibiotics: ampicillin, clindamycin, gentamicin, kanamycin, erythromycin, ampicillin/sulbactam, chloramphenicol, streptomycin discs
Protocol: The Lactobacillus plantarum CJLP475 strain and the Lactobacillus plantarum CJLP243 strain were independently inoculated into a liquid MRS medium and subjected to a static culture at 37° C. for 24 hours. The thus-cultured bacteria were soaked in sterilized cotton swabs and smeared on a Mueller Hinton II solid medium (Difco), and then antibiotic discs were placed on the medium and incubated at 37° C. for 24 hours. Ampicillin, clindamycin, gentamicin, kanamycin, erythromycin, ampicillin/sulbactam, chloramphenicol, and streptomycin discs (Oxoid, UK) were used as antibiotic discs for the antibiotic test.

[3] = test system: porcine epidemic diarrhea virus (PEDV, SM98 or KPEDV9 strain); test: Inhibitory effect against viral infection, PBMC culture broth on IPEC-J2 cells; assay type: cell-based; conditions: PBMC culture broth on IPEC-J2, PED virus 100 TCID50/mL, 48 hours
Protocol: In order to measure the inhibitory effect of the composition including the Lactobacillus plantarum CJLP475 strain and the Lactobacillus plantarum CJLP243 strain against viral infection, porcine epidemic diarrhea virus (PEDV, SM98 or KPEDV9 strain) was prepared. Specifically, the virus was proliferated in Vero cells (CCL-81, kidney epithelial cells extracted from Chlorocebus), and MEM (Eagle's Minimum Essential Medium, Gibco BRL, USA), heat-inactivated 10% FBS (fetal bovine serum, v/v) and 1% (v/v) penicillin/streptomycin were as the media for culturing Vero cells. The Vero cells were incubated as a monolayer, washed twice with the media, and then all the solutions were removed. The virus was mixed at 0.1 MOI (multiplicity of infection) level in FBS-free MEM containing trypsin treated with 5 μg/ml TPCK (N-tosyl-L-phenylalanine chloromethyl ketone), treated with a minimal volume of the prepared culture cells, and then incubated in a 37° C. cell incubator containing 5% CO2 for 2 to 3 days.
The viral infection was determined by the formation of virus syncytia. […] Subsequently, the cells were added with a culture broth, in which the virus was subjected to a 2-fold serial dilution, and incubated for 24 to 48 hours to confirm viral infection, and the virus titer was calculated by the Reed & Muench method. […]

piglets = test: Immunity of piglets born from fed sows (IgA ELISA); assay type: in vivo; conditions: 4 days after given colostrum, vs control
Protocol: In order to confirm the effect of the composition including the Lactobacillus plantarum CJLP475 strain and the Lactobacillus plantarum CJLP243 strain on the immunity of piglets born from the sows fed with the composition, an experiment was carried out using sows as in Example 9. Further, blood was collected from the piglets born from the sows 4 days after given colostrum to carry out an immunological analysis using an IgA ELISA kit.

[4] = test system: red blood cells (sheep blood 5% agar); test: Hemolytic activity on blood agar plates; assay type: cell-based; conditions: 37° C., 24 hours
Protocol: […]-Hemolysis is a phenomenon in which phospholipids supplied by red blood cells are hydrolyzed by phospholipid enzymes produced from harmful bacteria, resulting in hemolysis of red blood cells. In order to determine the hemolytic activity of the Lactobacillus plantarum CJLP475 strain and the Lactobacillus plantarum CJLP243 strain, blood agar plates (sheep blood 5% agar, Hanilkomed, Korea) were used. The strains were streaked into the prepared blood agar plates and incubated at 37° C. for 24 hours to confirm the hemolysis.

PED virus KPEDV9 = test: Inhibition of PED virus infection by immune cells of weaned piglets fed with the strains; assay type: in vivo; design: key: ++: Complete Inhibition; +: Partial Inhibition; −: Infected; conditions: piglets fed 10^10 CFU per day for 3 weeks; for Inhibitory Effect against PED virus infection, mLN, KPEDV9: immune cells of mesenteric lymph nodes; for Inhibitory Effect against PED virus infection, Spin, KPEDV9: immune cells of spleen
Protocol: (§3) In order to confirm the effect of the composition including the Lactobacillus plantarum CJLP243 strain and the Lactobacillus plantarum CJLP475 strain on the immunity upon feeding, an experiment was carried out as follows:
(§4) Thirty-two 21-day-old weaned piglets were purchased and raised in a container farm for 3 weeks. The feed was given in the form of common crumble feeds without antibiotics. The composition including the Lactobacillus plantarum CJLP475 strain and the Lactobacillus plantarum CJLP243 strain was produced in the form of freeze-dried powder and stored in a refrigerator, and each piglet was given the feed in an amount of 10^10 CFU per day. After 3 weeks of oral administration, four piglets per treatment group were autopsied to collect blood and tissue samples so as to determine the effect of the composition on the immunity of the piglets.
(§5) In order to obtain immune cells from the spleen (Spin) and the mesenteric lymph nodes (mLN), the chopped tissue was powdered using a plunger of a syringe and a 70-micrometer cell strainer (BD Falcon), and then the cells were washed using an RPMI-1640 medium (Roswell Park Memorial Institute-1640, Gibco BRL, Grand Island, N.Y., USA). The remaining RBCs (red blood cells) were removed using an RBC lysis buffer (eBioscience, USA) prior to the last washing step. The immune cells collected after the last washing step were stained with Trypan blue and counted with a hemocytometer to be used.
(§6) For evaluation of the inhibitory effect against viral infection, PED virus was incubated in the same manner as in Example 6 described above, and the content thereof was measured. The immune cells obtained from the weaned piglets without feeding of the composition were used as a negative control.

PED virus SM98 = test: as above; assay type: in vivo; design: key: ++: Complete Inhibition; +: Partial Inhibition; −: Infected; conditions: piglets fed 10^10 CFU per day for 3 weeks; for Inhibitory Effect against PED virus infection, mLN, SM98: immune cells of mesenteric lymph nodes; for Inhibitory Effect against PED virus infection, Spin, SM98: immune cells of spleen
Protocol: as §3, §4, §5, §6

sows = test: Effect on immunity and colostrum of sows (IgA and IgG ELISA); assay type: in vivo; conditions: vs control; for total IgA content in the serum of sows / total IgG content in the serum of sows: sows fed 10^10 to 10^11 CFU per day for 4 weeks
Protocol: An experiment was carried out in order to confirm the effect of the composition including the Lactobacillus plantarum CJLP475 strain and the Lactobacillus plantarum CJLP243 strain on the immunity and colostrum of sows when the composition was given to the sows, as follows: fifteen sows at 6 weeks before delivery in the same delivery period were selected randomly for each experimental group from the farms in which no PED virus had occurred. All of the sows used in the experiment were inoculated with the PED virus vaccine at 5 weeks and 2 weeks before delivery. The experiment was carried out in a total of four experimental groups, i.e., a control group in which no strain was fed, a group fed with CJLP475 alone, a group fed with CJLP243 alone, and a group fed with the composition including CJLP475 strain and CJLP243 strain. The feed was given in the form of common feeds without antibiotics, and water was given to be consumed freely. The Lactobacillus plantarum CJLP475 strain, the Lactobacillus plantarum CJLP243 strain, and the composition were produced in the form of freeze-dried powder and stored in a refrigerator, and then added on top of the feed when given to the sows so that each sow was given the feed in an amount of 10^10 to 10^11 CFU per day according to the treatment conditions. The sows were fed for a total of 4 weeks, and then the serum and colostrum of the sows were examined using an IgA and IgG ELISA kit.

[5] = Acid-resistance assessment in artificial gastric juice medium (viable cell count); assay type: physicochemical; conditions: artificial gastric juice medium (MRS with pepsin, pH 2.5), 37° C.
Protocol: An artificial gastric juice medium was prepared for the assessment of acid-resistance. More specifically, the artificial gastric juice medium was prepared by adding pepsin to a liquid MRS medium so as to adjust the pH to 2.5, followed by sterilization.
as §1, with “gastric juice” for “bile”, “3” for “24”
as §2

Substance: Lactobacillus plantarum CJLP475
- Bile-Resistance Assessment, viable cell count 0 hr [1]: 1.3 × 10^8 CFU/mL
- Bile-Resistance Assessment, viable cell count 24 hrs [1]: 1.1 × 10^7 CFU/mL
- Radius of Growth Inhibition Area Centered Around Antibiotics ([2]; Amp10 (Ampicillin) disc): 7.5 mm
- Radius of Growth Inhibition Area Centered Around Antibiotics ([2]; C30 (Clindamycin) disc): 7 mm
- Radius of Growth Inhibition Area Centered Around Antibiotics ([2]; CN120 (Gentamicin) disc): 5 mm
- Radius of Growth Inhibition Area Centered Around Antibiotics ([2]; DA2 (Streptomycin) disc): 4.5 mm
- Radius of Growth Inhibition Area Centered Around Antibiotics ([2]; E15 (Erythromycin) disc): 12 mm
- Radius of Growth Inhibition Area Centered Around Antibiotics ([2]; K30 (Kanamycin) disc): 1.5 mm
- Radius of Growth Inhibition Area Centered Around Antibiotics ([2]; S10 (Chloramphenicol) disc): 3.5 mm
- Radius of Growth Inhibition Area Centered Around Antibiotics ([2]; SAM20 (Ampicillin/Sulbactam) disc): 7 mm
- resistance to antibiotics [2]: not resistant
- inhibitory effect against PED virus infection (microscopy, crystal violet) [3]: the virus infection was suppressed
- total IgA content in the piglet serum (piglets): higher
- hemolysis [4]: did not show hemolysis
- Inhibitory Effect against PED virus infection, mLN, KPEDV9 (PED virus KPEDV9): ++
- Inhibitory Effect against PED virus infection, Spin, KPEDV9 (PED virus KPEDV9): ++
- Inhibitory Effect against PED virus infection, mLN, SM98 (PED virus SM98): ++
- Inhibitory Effect against PED virus infection, Spin, SM98 (PED virus SM98): ++
- total IgA antibody titer in the colostrum (sows; sow colostrum during delivery): higher
- total IgA content in the serum of sows (sows): higher than those in the control group
- total IgG content in the serum of sows (sows): higher than those in the control group
- Acid-Resistance Assessment, viable cell count 0 hr [5]: 1.1 × 10^6 CFU/mL
- Acid-Resistance Assessment, viable cell count 3 hrs [5]: 1.1 × 10^7 CFU/mL

Substance: Lactobacillus plantarum CJLP243
- Bile-Resistance Assessment, viable cell count 0 hr [1]: 3.2 × 10^7 CFU/mL
- Bile-Resistance Assessment, viable cell count 24 hrs [1]: 7.3 × 10^8 CFU/mL
- resistance to antibiotics [2]: not resistant
- inhibitory effect against PED virus infection (microscopy, crystal violet) [3]: the virus infection was suppressed
- hemolysis [4]: did not show hemolysis
- Inhibitory Effect against PED virus infection, mLN, KPEDV9 (PED virus KPEDV9): ++
- Inhibitory Effect against PED virus infection, Spin, KPEDV9 (PED virus KPEDV9): ++
- Inhibitory Effect against PED virus infection, mLN, SM98 (PED virus SM98): +
- Inhibitory Effect against PED virus infection, Spin, SM98 (PED virus SM98): ++
- total IgA content in the serum of sows (sows): higher than those in the control group
- total IgG content in the serum of sows (sows): higher than those in the control group
- Acid-Resistance Assessment, viable cell count 0 hr [5]: 4.5 × 10^7 CFU/mL
- Acid-Resistance Assessment, viable cell count 3 hrs [5]: 4.4 × 10^7 CFU/mL
